Data as given in PMC11790956, “A microscale thermophoresis-based enzymatic RNA methyltransferase assay enables the discovery of DNMT2 inhibitors” (Communications Chemistry, 2025).

Experiments:
metH aptamer = tested on: metH aptamer; parameters: method as in PMID 20864509; details: cited from earlier work
[1] = biological target: aptaSAH1&2 SAH split aptamer; experiment: Split aptamer (aptaSAH1&2) plate reader-based FRET ligand titration; format: binding, D. aromatica; details: for Kd: FRET, aptaSAH1&2 each 50 nM, λex = 485 nm, λem = 600 nm, read-out: apparent KD
Description: In our study, we followed the aim of developing a fluorescent split aptamer SAH biosensor (Fig. 1A) from the natural non-split metH RNA aptamer. The concept of fluorescent split aptamers relies on a series of two or more independent fluorescently labeled aptamer oligonucleotides, able to assemble only in the presence of a specific target ligand. In a FRET-based approach, two fragments carry a FRET-pair of communicating fluorescent dyes, such that, upon excitation of the donor dye, the acceptor dye will only emit fluorescence if the dyes are in spatial proximity in the ligand-bound complex, thus indicating the presence of the analyte, i.e., SAH[23]. […] Accordingly, we evaluated two split aptamer fragments labeled with fluorescein (FAM) and tetramethylrhodamin (TAMRA) as a FRET-capable dye pair: aptaSAH1 and aptaSAH2 (Fig. 1B).
(§1) To establish our experimental setup, we mixed both aptamer fragment oligonucleotides at equimolar concentrations (final: 50 nM) and titrated series of SAH resp. SAM dilutions to this prototypical SAH biosensor. […] Furthermore, MST assays require only 10 µL of sample volume per capillary compared to 30 µL per well in a 96-well plate supporting high-throughput applications in material consumption.
MTase reaction mixtures were prepared analogously to the MST-based detection approach but on a 30 µL scale (minimum volume for 96-well half-area plates). Reactions were quenched at a given time by 0.3% SDS and supplemented with 3 µL of the 10× aptamer-containing detection master mix. Reaction mixtures were transferred in technical triplicates to black Greiner 96-well half-area plate and incubated for 1 h at room temperature. Afterward, plates were measured using a Tecan Spark 10 M plate reader equipped with a monochromator setup (λex = 485 nm; λem = 600 nm). Statistical analysis and plotting were performed in GraphPad Prism 7.01.

AptaFluor SAH aptamer = experiment: Commercial AptaFluor SAH assay kit (HTRF) ligand titration; format: binding; details: read-out: affinity KD
Procedure: To assess the suitability for sensing SAH in a steady-state enzymatic assay, we examined statistical Z-values at 50 nM SAH (which correspond to 5% SAM-to-SAH substrate conversion from 1 µM SAM substrate in a common RNA MTase reaction). By this, we determined an MST-based Z-value of 0.84 (FRET assay: Z = 0.57) highlighting the suitability of this framework for high-throughput screening (HTS) assay setups (Fig. 1E). For these reasons, we prefer the usage of the MST-based assay which the following chapter will focus on, but it is noteworthy that plate reader-based FRET assays were also found equally functional. Furthermore, we performed comparative assays with the commercial AptaFluor assay kit, which gave similar results to our assay in all respects (SI Fig. 2): Z-factor at 50 nM SAH = 0.84; SAH resp.
Radiometric DNMT2 assays were carried out as described previously. HTRF MTase assays with the commercial AptaFluor SAH assay kit (BellBrook Labs) were performed as described in the manufacturer’s manual in 96-well format.
SI Figure 1 . Displacement of FTAD by literature-known inhibitors in a microscale thermophoresis displacement a s s a y. Data is given as mean ± SD of triplicates. (A) MST traces of SHO108. […]
SI Figure 2. […] (B) D o se -response curves of the AptaFluor assay in the presence of the SAH or SAM ligand by plate reader-ba s e d HT R F ass ays (λex=33 2 nm; λem=620/665 nm). […]

[2] = biological target: aptaSAH1&2 SAH split aptamer; experiment: Split aptamer (aptaSAH1&2) MST ligand titration; format: binding, D. aromatica; details: MST, aptaSAH1&2 each 50 nM
Procedure: as §1
To evaluate the effect of inhibitors on DNMT2 activity, we used two known inhibitors, SHO108 and SH112. These SAH derivatives were selected based on their documented efficacy for DNMT2[8],[26].
For MTase assay detection by MST, enzyme reaction mixtures with a total volume of 10 µL per single treatment condition were prepared and incubated for the desired reaction times. Inhibitors were added from corresponding DMSO stocks to a final DMSO concentration of max. 5%. Afterward, reactions were quenched at a given reaction time by the addition of 1 µL sodium dodecyl sulfate (SDS, solution, 3% in water) per 10 µL reaction mixture and mixed well by pipetting. Subsequently, 1 µL of a 10× aptamer-containing detection master mix (200 mM Tris, pH 8.5, 200 mM MgCl2, 3 M NaCl, 10 mM urea, 0.2% Brij, 500 nM aptaSAH1, 500 nM aptaSAH2) was added to the quenched MTase reaction and incubated for 1 h at room temperature. Reaction mixtures were loaded directly to MST capillaries without further purification or sample processing.
MST experiments were carried out in at least technical triplicates using a Monolith NT.115 instrument (NanoTemper Technologies) using Monolith standard capillaries and the blue excitation laser setup. The instrument was calibrated according to the manufacturer’s instructions. General settings were applied for all MST experiments as follows: manual temperature control: 25 °C, fluorescence measurement before MST: 4 s, MST (IR laser) on: 20 s, fluorescence after MST: 2 s, delay: 25 s. The laser power was adjusted to optimize the signal-to-noise ratio and the fluorescence signal. LED and MST power settings were chosen individually for each sample by adjusting the LED power to yield fluorescence signals of at least 300 units (blue laser) or 3000 units (red laser) and the MST power to achieve an appropriate thermophoretic response (standard setting: medium MST power). MST measurements were analyzed using the NT analysis software (version 1.5.41) and exported for statistical analysis and plotting in GraphPad Prism 7.01.

METTL3/14 = biological target: T1, METTL3/14 (Homo sapiens, UniProt Q86U44); experiment: METTL3/14 enzymatic split aptamer MST assay; format: biochemical; details: 10 nM MTase, 120 nM RNA substrate, variable SAM; read-out: Michaelis-Menten constant KM
T1 construct: purchased BPS Bioscience BPS-100105
Procedure: Specifically, we studied the m^6A MTase METTL3/14 and the m^7G MTase S. aureus TrmD.
For MTase assay detection by MST, enzyme reaction mixtures with a total volume of 10 µL per single treatment condition were prepared and incubated for the desired reaction times. Inhibitors were added from corresponding DMSO stocks to a final DMSO concentration of max. […] Afterward, reactions were quenched at a given reaction time by the addition of 1 µL sodium dodecyl sulfate (SDS, solution, 3% in water) per 10 µL reaction mixture and mixed well by pipetting. […]
MST experiments were carried out in at least technical triplicates using a Monolith NT.115 instrument (NanoTemper Technologies) using Monolith standard capillaries and the blue excitation laser setup. […] General settings were applied for all MST experiments as follows: manual temperature control: 25 °C, fluorescence measurement before MST: 4 s, MST (IR laser) on: 20 s, fluorescence after MST: 2 s, delay: 25 s. The laser power was adjusted to optimize the signal-to-noise ratio and the fluorescence signal. LED and MST power settings were chosen individually for each sample by adjusting the LED power to yield fluorescence signals of at least 300 units (blue laser) or 3000 units (red laser) and the MST power to achieve an appropriate thermophoretic response (standard setting: medium MST power). […]

S. aureus TrmD = biological target: T2, S. aureus TrmD (Staphylococcus aureus, UniProt Q2FZ43); experiment: S. aureus TrmD enzymatic split aptamer MST assay; format: biochemical
T2 construct: made in house
T2 sequence (Q2FZ43 1-245): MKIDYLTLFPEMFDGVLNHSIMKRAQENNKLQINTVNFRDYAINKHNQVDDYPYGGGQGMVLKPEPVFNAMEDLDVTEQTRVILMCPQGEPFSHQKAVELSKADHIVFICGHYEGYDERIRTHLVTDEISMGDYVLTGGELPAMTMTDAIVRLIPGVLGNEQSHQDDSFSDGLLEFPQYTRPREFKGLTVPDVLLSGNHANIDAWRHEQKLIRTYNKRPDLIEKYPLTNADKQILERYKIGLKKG
Procedure: DNMT2 & S. aureus TrmD: 100 mM Tris-HCl, pH 8, 100 mM NH4OAc, 0.1 mM EDTA, 10 mM MgCl2, 10 mM DTT. For TrmD: 50 nM TrmD, 2 µM SAM, 1 µM tRNA^Leu.
For MTase assay detection by MST, enzyme reaction mixtures with a total volume of 10 µL per single treatment condition were prepared and incubated for the desired reaction times. Inhibitors were added from corresponding DMSO stocks to a final DMSO concentration of max. 5%. Afterward, reactions were quenched at a given reaction time by the addition of 1 µL sodium dodecyl sulfate (SDS, solution, 3% in water) per 10 µL reaction mixture and mixed well by pipetting. Subsequently, 1 µL of a 10× aptamer-containing detection master mix (200 mM Tris, pH 8.5, 200 mM MgCl2, 3 M NaCl, 10 mM urea, 0.2% Brij, 500 nM aptaSAH1, 500 nM aptaSAH2) was added to the quenched MTase reaction and incubated for 1 h at room temperature. […]
MST experiments were carried out in at least technical triplicates using a Monolith NT.115 instrument (NanoTemper Technologies) using Monolith standard capillaries and the blue excitation laser setup. […] General settings were applied for all MST experiments as follows: manual temperature control: 25 °C, fluorescence measurement before MST: 4 s, MST (IR laser) on: 20 s, fluorescence after MST: 2 s, delay: 25 s. The laser power was adjusted to optimize the signal-to-noise ratio and the fluorescence signal. […]

TrmD = details: read-out: reported IC50; cited from earlier work

T1 sequence (Q86U44 2-580 limits assumed): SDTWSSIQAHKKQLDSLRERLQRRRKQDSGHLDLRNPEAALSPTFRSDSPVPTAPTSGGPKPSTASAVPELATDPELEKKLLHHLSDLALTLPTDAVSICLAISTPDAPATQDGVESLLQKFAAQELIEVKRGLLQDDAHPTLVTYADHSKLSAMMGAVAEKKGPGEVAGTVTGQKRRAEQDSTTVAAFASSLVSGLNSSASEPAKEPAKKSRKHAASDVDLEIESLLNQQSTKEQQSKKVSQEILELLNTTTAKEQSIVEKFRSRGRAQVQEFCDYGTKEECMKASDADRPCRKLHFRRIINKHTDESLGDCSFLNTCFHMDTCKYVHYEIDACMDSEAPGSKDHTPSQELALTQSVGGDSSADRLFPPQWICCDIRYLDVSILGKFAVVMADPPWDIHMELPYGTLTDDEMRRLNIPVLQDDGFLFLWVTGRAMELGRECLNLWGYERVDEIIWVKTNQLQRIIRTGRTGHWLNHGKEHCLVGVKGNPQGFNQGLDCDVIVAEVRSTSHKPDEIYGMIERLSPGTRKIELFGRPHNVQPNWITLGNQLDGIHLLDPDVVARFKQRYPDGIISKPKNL
T1 sequence (Q9HCE5 2-456 partner limits assumed): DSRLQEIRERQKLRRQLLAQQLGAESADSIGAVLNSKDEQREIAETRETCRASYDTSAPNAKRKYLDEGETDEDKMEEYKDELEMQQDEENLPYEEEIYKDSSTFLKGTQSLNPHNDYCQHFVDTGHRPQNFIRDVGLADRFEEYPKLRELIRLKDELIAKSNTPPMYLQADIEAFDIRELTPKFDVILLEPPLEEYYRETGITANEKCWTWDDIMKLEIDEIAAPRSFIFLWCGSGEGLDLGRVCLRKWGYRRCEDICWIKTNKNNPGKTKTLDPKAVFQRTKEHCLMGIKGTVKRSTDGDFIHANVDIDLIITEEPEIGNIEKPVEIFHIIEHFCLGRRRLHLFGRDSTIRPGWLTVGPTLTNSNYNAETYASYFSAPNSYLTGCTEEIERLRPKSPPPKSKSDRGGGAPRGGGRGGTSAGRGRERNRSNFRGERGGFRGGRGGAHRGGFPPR

Row | Compound | selectivity over other nucleosides (including SAM) (metH aptamer) | Kd (metH aptamer; isothermal titration calorimetry, read-out: apparent dissociation constant KD) [µM] | Kd [1] [µM] | SAH over SAM selectivity ([1]; from FRET apparent KD values) [fold] | Kd (AptaFluor SAH aptamer) [µM] | Kd [2] [µM] | Km (METTL3/14) [µM] | IC50 (S. aureus TrmD) [µM] | IC50 (TrmD) [µM]
1 | Nc1ncnc2c1ncn2[C@@H]1O[C@H](CSCC[C@H](N)C(=O)O)[C@@H](O)[C@H]1O [SAH, S-adenosylhomocysteine] | at least 100 fold | ~0.02 | 0.018 | 300 | 0.026 | 0.024 |  |  | 
2 | C[S+](CC[C@H](N)C(=O)[O-])C[C@H]1O[C@@H](n2cnc3c(N)ncnc32)[C@H](O)[C@@H]1O (stereo partly drawn) [SAM, S-adenosylmethionine] |  |  | 5.3 |  | 5.7 | 2.5 | 0.106 |  | 
3 | O=c1nc[nH]c2scc(-c3ccccc3)c12 [phenylthieno-pyrimidinone, 5-phenylthieno[2,3-d]pyrimidin-4(1H)-one] |  |  |  |  |  |  |  | 8.45 | 11
